{
  "source": "patent US20130005696A1",
  "about": "“BUFADIENOLIDE DERIVATIVES, PREPARING PROCESS THEREOF, COMPOSITION COMPRISING THE SAME AND THE USE THEREOF” (priority 2011, published 2013)",
  "format_in_all_cases": "in vivo, Balb/c nude mice",
  "key": {"[1]": {"test_system": "human-derived colon carcinoma HCT-116 xenograft", "assay": "Therapeutic effect against HCT-116 xenograft in nude mice", "conditions": "QOD × 14 d", "procedure": "(§1) This experiment is to investigate the in vivo inhibitory effect of II1E-01.HCl on growth of human-derived hepatic carcinoma HepG2 cell, human-derived breast carcinoma MDA-MB-231 cell, human-derived lung carcinoma H460 cell, human-derived colon carcinoma HCT-116 cell, human-derived […] MV-4-11 cell xenografts in nude mice.\n(§2) Formulation of solvent control (5% anhydrous ethanol & 5% aqueous glucose solution): 2.5 mL anhydrous ethanol was added into a 50 mL tube, followed by addition of 47.5 mL 5% glucose solution for injection followed by shaking, and stored at room temperature before use.\n(§3) Formulation of the preparations of the compounds to be tested: formulations with concentrations of 0.4 mg/mL and 0.6 mg/mL were prepared respectively. An appropriate amount of II1E-01.HCl was weighted and put into a 50 mL tube, followed by addition of corresponding volume of solvent to get the desired concentration and mixed using a vortex mixer. After the solid was dissolved completely, the solution was subpackaged into 4 mL vials and stored at refrigerated condition (2-8° C.) until use.\n(§4) Experimental animals: Balb/c nude mice (male, six weeks old).\nHCT116 cells were in vitro cultured to be proliferated. The cells in the log phase of growth were collected, resuspended in RPMI-1640 serum-free medium, and then implanted subcutaneously into the axilla of the right forelimb of nude mice. After 14 days, the tumor size reached about 470 mm^3. The mice bearing the tumor were grouped by randomized block method according to the tumor size into 3 groups, including the group of solvent control and groups of 4 mg/kg and 6 mg/kg dosages of the testing compound II1E-01.HCl. In the solvent control group, glucose injection was administered intravenously at tail once every other day (QOD). The testing compound II1E-01.HCl was administered intravenously (iv) at tail once every other day (QOD). The animals were given the drugs for 14 days, during which, the growth of tumor and the body weight of the mice were observed.\nAfter continuously administering for 14 days (the 28th day after the implantation), the tumor weight and inhibition rate were calculated, and results are listed in Table 8."}, "[2]": {"test_system": "human hepatic carcinoma HepG2 xenograft", "assay": "Therapeutic effect against HepG2 xenograft in nude mice", "conditions": "QOD × 14 d", "procedure": "as §1, §2, §3, §4\nHepG2 cells were in vitro cultured to be proliferated. The cells in the log phase of growth were collected and resuspended in DMEM serum-free medium, and then implanted subcutaneously into the axilla of the right forelimb of nude mice. After 11 days, the tumor size reached about 250 mm^3. The mice bearing the tumor were grouped according to the tumor size into 6 groups, including the group of solvent control, groups of positive controls (Rapamycin 10 mg/kg and Vinorelbine 8 mg/kg), and groups of low (2 mg/kg), middle (4 mg/kg) and high (6 mg/kg) dosages of the testing compound II1E-01.HCl. Each group was administered intravenously at tail. In the solvent control group, the solvent control solution was administered intravenously once every other day (QOD). In the low, middle and high dosage groups of II1E-01.HCl, II1E-01.HCl was administered intravenously once every other day (QOD). In the positive control groups, Rapamycin 10 mg/kg and Vinorelbine 8 mg/kg were administered once a week (QW). The animals were given the drugs for two weeks. In the two week time period, the growth of tumor and the body weight of the mice were observed.\nTwo weeks after administering (the 25th day after the implantation), the tumor weight and inhibition rate were calculated, and results are listed in Table 5."}, "[3]": {"test_system": "human-derived lung cancer H460 xenograft", "assay": "Therapeutic effect against H460 xenograft in nude mice", "conditions": "QOD × 21 d", "procedure": "as §1, §2, §3, §4\nNCI-H460 xenograft model was established by tumor implantation. 19 days after the implantation, the tumor size reached about 210 mm^3. The mice bearing the tumor were grouped by randomized block method according to the tumor size into 3 groups, which contain 10 mice in each group and include the group of solvent control, and groups of middle (4 mg/kg) and high (6 mg/kg) dosages of the testing compound II1E-01.HCl. In the solvent control group, 5% glucose solution was administered intravenously at tail once every other day (QOD). The testing compound was administered intravenously at tail once every other day (QOD). The animals were given the drugs for three weeks, during which the growth of tumor and the body weight of the mice were observed.\nAfter continuously administering for 21 days (the 40th day after the implantation), the tumor weight and inhibition rate were calculated, and results are listed in Table 7."}, "[4]": {"test_system": "human-derived leukaemia MV-4-11 xenograft", "assay": "Therapeutic effect against MV-4-11 xenograft in nude mice", "conditions": "for Inhibition Rate (%): 4 mg/kg", "procedure": "as §1, §2, §3, §4\nMV-4-11 cells were in vitro cultured to be proliferated. The cells in the log phase of growth were collected and resuspended in IMDM serum-free medium, and then implanted subcutaneously into the axilla of the right forelimb of nude mice. After 37 days, the tumor size reached about 270 mm^3. The mice bearing the tumor were grouped by randomized block method according to the tumor size into 3 groups, which contain 6 mice in each group and include the group of solvent control, group of positive control (Sunitinib 40 mg/kg), and group of the testing compound II1E-01.HCl (4 mg/kg QOD). In the positive control group, sunitinib was administered intragastrically once daily (QD). In the group of II1E-01.HCl, II1E-01.HCl was administered intravenously at tail once every other day (QOD). The animals were given the drugs for 21 days, during which the growth of tumor and the body weight of the mice were observed.\nAfter continuously administering for 21 days (the 58th day after the implantation), the tumor weight and inhibition rate were calculated, and results are listed in Table 9. […] In the group of the testing compound II1E-01.HCl (4 mg/kg QOD), the tumor also completely disappeared at 14th day after administration, and the inhibition rate was 100.00% (P<0.01) at the end of the experiment."}, "[5]": {"conditions": "4 mg/kg iv, listed as II1E-01.HCl, 4 mg/kg"}, "[6]": {"conditions": "6 mg/kg iv, listed as II1E-01.HCl, 6 mg/kg"}},
  "data": [
    {"compound": "C[C@]12CC[C@H](OC(=O)NC3CCNCC3)C[C@H]1CC[C@@H]1[C@@H]2CC[C@]2(C)[C@@H](c3ccc(=O)oc3)CC[C@]12O.Cl", "note": "[II1E-01•HCl]", "values": [
      {"measurement": "Tumor Weight(g) Mean ± SE", "setting": "[1]; 4 mg/kg iv", "result": "0.8017 ± 0.0480", "unit": "g"},
      {"measurement": "Inhibition Rate (%)", "setting": "[1]; 4 mg/kg iv, 4 mg/kg", "result": 36.82, "unit": "%"},
      {"measurement": "Inhibition Rate (%)", "setting": "[1]; [5]", "result": 36.82, "unit": "%"},
      {"measurement": "Tumor Weight(g) Mean ± SE", "setting": "[1]; 6 mg/kg iv", "result": "0.4147 ± 0.0212", "unit": "g"},
      {"measurement": "Inhibition Rate (%)", "setting": "[1]; 6 mg/kg iv, 6 mg/kg", "result": 67.33, "unit": "%"},
      {"measurement": "Inhibition Rate (%)", "setting": "[1]; [6]", "result": 67.33, "unit": "%"},
      {"measurement": "Tumor Weight(g) Mean ± SE", "setting": "[2]; 2 mg/kg iv", "result": "0.3177 ± 0.0410", "unit": "g"},
      {"measurement": "Inhibition Rate (%)", "setting": "[2]; 2 mg/kg iv, 2 mg/kg", "result": 58.50, "unit": "%"},
      {"measurement": "Inhibition Rate (%)", "setting": "[2]; 2 mg/kg iv, listed as II1E-01.HCl, 2 mg/kg", "result": 58.50, "unit": "%"},
      {"measurement": "Tumor Weight(g) Mean ± SE", "setting": "[2]; 4 mg/kg iv", "result": "0.0938 ± 0.0121", "unit": "g"},
      {"measurement": "Inhibition Rate (%)", "setting": "[2]; 4 mg/kg iv, 4 mg/kg", "result": 87.75, "unit": "%"},
      {"measurement": "Inhibition Rate (%)", "setting": "[2]; [5]", "result": 87.75, "unit": "%"},
      {"measurement": "Tumor Weight(g) Mean ± SE", "setting": "[2]; 6 mg/kg iv", "result": "0.0262 ± 0.0054", "unit": "g"},
      {"measurement": "Inhibition Rate (%)", "setting": "[2]; 6 mg/kg iv, 6 mg/kg", "result": 96.58, "unit": "%"},
      {"measurement": "Inhibition Rate (%)", "setting": "[2]; [6]", "result": 96.58, "unit": "%"},
      {"measurement": "Tumor Weight(g) Mean ± SE", "setting": "[3]; 4 mg/kg iv", "result": "0.5125 ± 0.0307", "unit": "g"},
      {"measurement": "Inhibition Rate (%)", "setting": "[3]; 4 mg/kg iv, 4 mg/kg", "result": 61.94, "unit": "%"},
      {"measurement": "Inhibition Rate (%)", "setting": "[3]; [5]", "result": 61.94, "unit": "%"},
      {"measurement": "Tumor Weight(g) Mean ± SE", "setting": "[3]; 6 mg/kg iv", "result": "0.3246 ± 0.0692", "unit": "g"},
      {"measurement": "Inhibition Rate (%)", "setting": "[3]; 6 mg/kg iv, 6 mg/kg", "result": 75.90, "unit": "%"},
      {"measurement": "Inhibition Rate (%)", "setting": "[3]; [6]", "result": 75.90, "unit": "%"},
      {"measurement": "day after administration at which the tumor completely disappeared", "setting": "[4]; 4 mg/kg iv QOD", "result": 14, "unit": "days"},
      {"measurement": "Tumor Weight(g) Mean ± SE", "setting": "[4]; 4 mg/kg iv, QOD × 21 d", "result": "0.0000 ± 0.0000", "unit": "g"},
      {"measurement": "Inhibition Rate (%)", "setting": "[4]; 4 mg/kg iv, QOD × 21 d", "result": 100.00, "unit": "%"},
      {"measurement": "Inhibition Rate (%)", "setting": "[4]; 4 mg/kg iv, QOD × 21 d, listed as II1E-01.HCl", "result": 100.00, "unit": "%"}
    ]}
  ]
}
